Several values for one entry are separate records, joined by “and”; a condition that tells them apart may be missing. Equal values may be shown once.
What was measured:
[1] = Acid pKa of the free base; assay type: physicochemical
[2] = Pharmacokinetic study: plasma concentration and plasma PK parameters after IV/PO dosing (LC-MS/MS, WinNonlin); assay type: in vivo, Male SD Rat; conditions: male SD rat
Outline: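 Plasma levels after IV and oral dosing were measured by LC-MS/MS. Non-compartmental parameters came from concentration–time data: T1/2, C0, AUC, MRT, Cl and Vss for IV; T1/2, Cmax, Tmax, AUC, MRT and F% for PO. Values are given as mean and standard deviation.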

[3] = IV 3 mg/kg, plasma, individual rats, listed as TLZ-16 freebase, 3 mg/kg
[4] = PO 10 mg/kg (equal to freebase), plasma, individual rats, vehicle 20% HP-β-CD in water (POA, freebase) or water (salts), listed as TLZ-16 freebase, 10 mg/kg

For `COc1cc2c(cc1OC)[C@@H]1Cc3ccc(O)c(OC)c3CN1CC2` [Compound (1), l-corydalmine], the pKa [1] was roughly 5.2, the concentration in plasma ([2]; IV 3 mg/kg, 0 h, individual rats) was “BLOQ (BLOQ = below limit of quantitation (0.2 ng/mL))” and the concentration in plasma ([2]; IV 3 mg/kg, 0.083 h, individual rats, listed as TLZ-16 freebase, 3 mg/kg) was 1410 ng/mL and 1610 ng/mL. For the same compound, the concentration in plasma ([2]; IV 3 mg/kg, 0.25 h, individual rats, listed as TLZ-16 freebase, 3 mg/kg) was 960 ng/mL and 995 ng/mL, the concentration in plasma ([2]; IV 3 mg/kg, 0.5 h, individual rats, listed as TLZ-16 freebase, 3 mg/kg) was 496 ng/mL and 536 ng/mL and the concentration in plasma ([2]; IV 3 mg/kg, 1 h, individual rats, listed as TLZ-16 freebase, 3 mg/kg) was 174 ng/mL and 206 ng/mL. The concentration in plasma ([2]; IV 3 mg/kg, 2 h, individual rats, listed as TLZ-16 freebase, 3 mg/kg) was 81.2 ng/mL and 60.6 ng/mL, the concentration in plasma ([2]; IV 3 mg/kg, 4 h, individual rats, listed as TLZ-16 freebase, 3 mg/kg) was 28.6 ng/mL and 43.0 ng/mL and 20.2 ng/mL and the concentration in plasma ([2]; IV 3 mg/kg, 8 h, individual rats, listed as TLZ-16 freebase, 3 mg/kg) was 5.24 ng/mL and 11.7 ng/mL and 2.20 ng/mL. The concentration in plasma ([2]; IV 3 mg/kg, 24 h, individual rats, listed as TLZ-16 freebase, 3 mg/kg) was “BLOQ (BLOQ = below limit of quantitation (0.2 ng/mL))”, the AUCInf [2, 3] was 1074 ng·h/mL and 1030 ng·h/mL and the AUClast [2, 3] was 1038 ng·h/mL and 1027 ng·h/mL. The AUClast/D [2, 3] was 312 kg·ng·h/mL/mg and 346 kg·ng·h/mL/mg and 342 kg·ng·h/mL/mg, the “AUC—% Extrap_obs” value [2, 3] was 1.32% and 3.37% and 0.306% and the C0 [2, 3] was 1707 ng/mL and 2045 ng/mL. The Cl_obs [2, 3] was 52.6 mL/min/kg and 46.5 mL/min/kg and 48.6 mL/min/kg, the MRTInf_obs [2, 3] was 1.52 h and 1.08 h and the T1/2 [2, 3] was 1.66 h and 2.14 h and 4.37 h. The Vss_obs [2, 3] was 3.43 L/kg and 4.26 L/kg and 3.16 L/kg, the AUClast/D, Mean ([2]; IV 3 mg/kg, plasma, mean n=3) was 334 kg·ng·h/mL/mg and the “AUC—% Extrap_obs, Mean” value ([2]; IV 3 mg/kg, plasma, mean n=3) was 1.67%. The “C0, Mean” value ([2]; IV 3 mg/kg, plasma, mean n=3) was 1822 ng/mL, the “Cl_obs, Mean” value ([2]; IV 3 mg/kg, plasma, mean n=3) was 49.2 mL/min/kg and the “Vss_obs, Mean” value ([2]; IV 3 mg/kg, plasma, mean n=3) was 3.61 L/kg. The F ([2]; PO 10 mg/kg (equal to freebase) vs IV 3 mg/kg freebase, individual rats, vehicle 20% HP-β-CD in water (POA, freebase) or water (salts), listed as TLZ-16 freebase) was 18.4% and 27.3% and 24.4%, the “F, Mean” value ([2]; PO 10 mg/kg (equal to freebase) vs IV 3 mg/kg freebase, mean n=3, vehicle 20% HP-β-CD in water (POA, freebase) or water (salts)) was 23.4% and the concentration in plasma ([2]; PO 10 mg/kg (equal to freebase), 0 h, individual rats, vehicle 20% HP-β-CD in water (POA, freebase) or water (salts)) was “BLOQ (BLOQ = below limit of quantitation (0.2 ng/mL))”. For the same compound, the concentration in plasma ([2]; PO 10 mg/kg (equal to freebase), 0.25 h, individual rats, vehicle 20% HP-β-CD in water (POA, freebase) or water (salts), listed as TLZ-16 freebase, 10 mg/kg) was 127 ng/mL and 358 ng/mL and 86.7 ng/mL, the concentration in plasma ([2]; PO 10 mg/kg (equal to freebase), 0.5 h, individual rats, vehicle 20% HP-β-CD in water (POA, freebase) or water (salts), listed as TLZ-16 freebase, 10 mg/kg) was 139 ng/mL and 344 ng/mL and 109 ng/mL and the concentration in plasma ([2]; PO 10 mg/kg (equal to freebase), 1 h, individual rats, vehicle 20% HP-β-CD in water (POA, freebase) or water (salts), listed as TLZ-16 freebase, 10 mg/kg) was 167 ng/mL and 98.9 ng/mL. For the same compound, the concentration in plasma ([2]; PO 10 mg/kg (equal to freebase), 2 h, individual rats, vehicle 20% HP-β-CD in water (POA, freebase) or water (salts), listed as TLZ-16 freebase, 10 mg/kg) was 53.1 ng/mL and 71.9 ng/mL, the concentration in plasma ([2]; PO 10 mg/kg (equal to freebase), 4 h, individual rats, vehicle 20% HP-β-CD in water (POA, freebase) or water (salts), listed as TLZ-16 freebase, 10 mg/kg) was 47.1 ng/mL and 40.1 ng/mL and the concentration in plasma ([2]; PO 10 mg/kg (equal to freebase), 8 h, individual rats, vehicle 20% HP-β-CD in water (POA, freebase) or water (salts), listed as TLZ-16 freebase, 10 mg/kg) was 35.7 ng/mL and 45.3 ng/mL. The concentration in plasma ([2]; PO 10 mg/kg (equal to freebase), 24 h, individual rats, vehicle 20% HP-β-CD in water (POA, freebase) or water (salts), listed as TLZ-16 freebase, 10 mg/kg) was “BLOQ (BLOQ = below limit of quantitation (0.2 ng/mL)) and 0.278 ng/mL and 0.869 ng/mL”, the AUCInf [2, 4] was 925 ng·h/mL and 829 ng·h/mL and the AUClast [2, 4] was 924 ng·h/mL and 825 ng·h/mL. For the same compound, the AUClast/D [2, 4] was 61.5 kg·ng·h/mL/mg and 92.4 kg·ng·h/mL/mg and 82.5 kg·ng·h/mL/mg, the “AUC—% Extrap_obs” value [2, 4] was 58.7% and 0.111% and 0.505% and the Cmax [2, 4] was 139 ng/mL and 358 ng/mL and 109 ng/mL. For the same compound, the MRTInf_obs [2, 4] was 13.6 h and 4.19 h and 5.68 h, the T1/2 [2, 4] was 8.80 h and 2.57 h and 3.34 h and the Tmax [2, 4] was 0.25 h. For the same compound, the AUClast/D, Mean ([2]; PO 10 mg/kg (equal to freebase), plasma, mean n=3, vehicle 20% HP-β-CD in water (POA, freebase) or water (salts)) was 78.8 kg·ng·h/mL/mg.

Source: patent publication US11236081B2, “Crystalline salts of corydalmine” (priority 2018, dated 2022)
